{"source": "patent US20040127512A1", "about": "“Method of treating symptoms of non-constipated irritable bowel syndrome” (Bradley Pharmaceuticals, Inc., priority 2002, published 2004)", "key": {"[1]": {"details": "in vivo; cited from earlier work"}, "[2]": {"assay": "clinical study of oral methscopolamine bromide as antispasmodic medication in colonoscopy", "assay_type": "in vivo", "details": "10 mg oral one hour before colonoscopy; 25 patients; control subjects 30%", "protocol": "A clinical study was undertaken with oral methscopolamine bromide as an antispasmodic medication in colonoscopy. The study comprised of 40 non-randomized patients. Thirty patients were given oral methscopolamine bromide prior to the procedure. […] The dose was increased to 10 mg for the following 25 patients. For the purpose of the study, in terms of spasm control a “success” was defined as a colonoscopy where there was no significant spasm on insertion and no intravenous Buscopan® was required. A failure was defined as the requirement of intravenous Buscopan® (antispasmodic). […] The study had both male and female patients."}, "[3]": {"details": "following oral administration; cited from earlier work"}}}
{"smiles": "C[N+]1(C)[C@@H]2C[C@@H](OC(=O)[C@H](CO)c3ccccc3)C[C@H]1[C@@H]1O[C@@H]12", "note": "[methscopolamine bromide]", "values": [{"measurement": "ability to cross the blood-brain-barrier", "setting": "[1]", "result": "limited ability to cross the blood-brain-barrier"}, {"measurement": "route of excretion", "setting": "[1]", "result": "excreted primarily in the urine and bile, or as unabsorbed drug in feces"}, {"measurement": "patients with minimal or no spasm", "setting": "[2]", "result": 64, "unit": "%"}, {"measurement": "time until drug effects appear", "setting": "[3]", "result": "about one"}]}
